Assay results from patent US20150093821A1, “BIODEGRADABLE POLYURETHANES AND USE THEREOF” (CARNEGIE MELLON UNIVERSITY, priority 2003, published 2015).

Assays:
[1] = system: collagen type I in GFP-MBMC; assay: Collagen type I production (Sirius Red F3B); assay type: cell-based, mouse; details: after 7 days culture, P<0.005
Procedure: Soluble calf skin collagen type I was used for the standard curves run with each assay (see FIG. 14). […] Three individual experiments were performed for type I collagen. The results were presented as the mean±standard deviation (n=3).

[2] = system: type I collagen of GFP-MBMC; assay: Western blot analysis for type I collagen; assay type: cell-based, mouse; details: two weeks of culture
Procedure: After two weeks of culture, the cells were harvested with Trypsin, subjected to a centrifuge and washed once with PBS. Thereafter, the lysis buffer/CLAP solution was added to the cells (Lysis buffer: 0.187 g HEPE, 0.4235 g NaCl, 0.001 g MgCl2 and 0.19 g EGTA dissolved in 50 ml PBS. CLAP solution: 4 μl each of chymostatin, leupeptin, antipain and pepstatin A in 100 μl PBS. Lysis buffer/CLAP solution: 100 μl CLAP solution added to 6.6 ml Lysis buffer). To assure complete rupture of the cells, the tubes were stored at −20° C. for 12 hrs. Total protein concentration was quantified using the BCA protein assay kit (Fisher Scientific, USA), which measured the light absorbance at 562 nm verses a standard curve on a microplate reader.
The protein obtained as described above was re-suspended in Laemmli sample buffer, followed by protein separation on an SDS-10% polyacrylamide gel. Western blotting was performed as described previously. […]
To ensure that equal amount of total protein was loaded to the membrane, GAPDH (glycerealdehyde-3-phosphate dehydrogenase) was detected using rat-anti-mouse GAPDH antibody (ICN Biochemicals, USA) followed by peroxidase-conjugated rabbit-anti-rat IgG antibody (E.Y. Laboratories, Inc. USA). […] Molecular weights of the proteins were determined using prestained molecular weight standards (14,300-200,000 molecular weight range; GIBCO BRL). […]

[3] = system: alkaline phosphatase activity of mouse bone cells (OPC); assay: Alkaline phosphatase activity of OPC with bioactive reagents or polymer foams; assay type: cell-based; details: 4 weeks, OD at 405 nm, medium with or without polymer, FIG. 5
Procedure: Bioactive polymers containing covalently bound dexamethasone and β-glycerophosphate were also synthesized and studied for potential use as bone scaffolds. In several studies, mouse bone cells (OPC) (9.6×10^4/well) were cultured in a 6-well tissue culture plate without polymer foam (blank column) with Dulbecoo's modified Eagle's medium only (DMEM); with 5 mM β-glycerophosphate (β-GP); with 100 nM dexamethasone (Dex); 50 μM ascorbic acid (Vc); with 50 μM ascorbic acid and 5 mM β-glycerophosphate (Vc+β-GP); with 50 μM ascorbic acid and 100 nM dexamethasone (Vc+Dex); with 50 μM ascorbic acid, 100 nM dexamethasone and 5 mM β-glycerophosphate (Vc+Dex+β-GP) for 4 weeks.
The same cells were cultured in a 6-well plate with the LDI-PEG400-glucose polymer (red column) using DMEM only. The polymer foams were synthesized with lysine ethyl ester diisocyanate (LDI), glucose and PEG only (DMEM); with LDI, glucose, PEG and β-glycerophosphate (β-GP); with LDI, glucose, PEG and dexamethasone (Dex); with LDI, glucose, PEG and ascorbic acid (Vc); with LDI, glucose, PEG, ascorbic acid and β-glycerophosphate (Vc+β-GP); with LDI, glucose, PEG, ascorbic acid and dexamethasone (Vc+Dex); and with LDI, glucose, PEG, ascorbic acid, 3-glycerophosphate and dexamethasone (Vc+Dex+β-GP). […] The alkaline phosphatase activity was determined by the OD at 405 nm in the medium with or without polymer. […]

O=C1O[C@H]([C@@H](O)CO)C(O)=C1O [ascorbic acid]
concentration of collagen type I relative to LDI-glycerol-PEG scaffold or tissue culture plate [1]: two times higher
type I collagen secreted (Western blotting) [2]: higher concentrations
alkaline phosphatase activity of OPC [3]: significantly increased

O=P(O)(O)OC(CO)CO [β-glycerophosphate]
alkaline phosphatase activity of OPC [3]: more moderately
